This assay concerns the target T1, wild-type Androgen Receptor (AR-wt) (Homo sapiens, UniProt P10275).
T1 construct: expressed in transfected cells; host or cells: LNCaP
T1 sequence (P10275 1-920): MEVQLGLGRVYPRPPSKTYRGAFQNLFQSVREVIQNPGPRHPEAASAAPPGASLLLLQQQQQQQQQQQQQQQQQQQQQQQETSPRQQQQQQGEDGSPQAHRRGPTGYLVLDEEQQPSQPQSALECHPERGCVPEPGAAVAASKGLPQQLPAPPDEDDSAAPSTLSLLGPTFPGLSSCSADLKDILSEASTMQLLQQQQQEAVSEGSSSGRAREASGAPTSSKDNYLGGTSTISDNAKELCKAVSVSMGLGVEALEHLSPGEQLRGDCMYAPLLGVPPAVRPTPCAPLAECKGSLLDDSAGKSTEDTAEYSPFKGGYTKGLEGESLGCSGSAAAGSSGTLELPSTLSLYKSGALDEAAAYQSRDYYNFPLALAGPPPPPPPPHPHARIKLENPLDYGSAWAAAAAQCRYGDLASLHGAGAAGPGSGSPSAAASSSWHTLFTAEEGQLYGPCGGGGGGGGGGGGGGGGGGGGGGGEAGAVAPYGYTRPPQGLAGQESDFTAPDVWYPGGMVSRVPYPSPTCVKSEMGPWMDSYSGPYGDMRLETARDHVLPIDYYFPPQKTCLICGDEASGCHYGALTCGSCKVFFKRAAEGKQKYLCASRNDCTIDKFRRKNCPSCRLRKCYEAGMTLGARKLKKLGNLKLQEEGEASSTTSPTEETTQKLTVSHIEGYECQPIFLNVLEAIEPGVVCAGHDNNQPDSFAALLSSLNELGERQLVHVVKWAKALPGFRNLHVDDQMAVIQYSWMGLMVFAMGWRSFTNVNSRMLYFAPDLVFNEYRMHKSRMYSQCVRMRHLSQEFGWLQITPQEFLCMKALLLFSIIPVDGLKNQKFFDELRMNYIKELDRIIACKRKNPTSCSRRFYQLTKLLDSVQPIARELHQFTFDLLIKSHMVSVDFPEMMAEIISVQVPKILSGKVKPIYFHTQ
The assay can be described thus: AR reporter assay, LNCaP-AR-wt AG (agonist mode). The settings on record: for Emax: read-out: LNCaP-AR-wt AG MAX % Stim. It counts as cell-based. The text has this: LNCaP AR (cs) and LNCaP F876L luciferase cell lines were generated by transduction of each cell line (description of cell line generation Joseph J D, Lu N, Qian J, Sensintaffar J, Shao G, Brigham D, Moon M, Maneval E C, Chen I, Darimont B, Hager J H. A clinically relevant androgen receptor mutation confers resistance to second-generation antiandrogens enzalutamide and ARN-509. Cancer Discov 2013; 3:1020-1029) with an Androgen Response Element Firefly Luciferase lentiviral construct at an MOI (multiplicity of infection) of 50 following the manufacturer's instructions (Qiagen). A stable pooled-population cell line was generated using puromycin (Life Technologies) selection at 1:10,000 v/v. The protocol below was used for both cell lines and for testing of the compounds of Formula (I) of the present invention.
LNCaP cells were grown to about 80% confluence, media removed and cells rinsed in Hank's balanced salt solution prior to separation from the plate with 0.05% Trypsin EDTA. Cells were lifted and trypsin negated in complete CSS (charcoal stripped serum) culture media. CSS was maintained on cells for 24 h prior to assay, at which time 5,000 cells/[…] were seeded in Greiner 384 well White/White Tissue Culture Treated Plates and incubated for a further 1-2 hours at 37° C., 5% CO2, prior to addition of 10 μL of 4× Test Compounds (compounds described herein) or Assay Controls (all diluted in complete media containing 10% css). A further 10 μL of 4× R-1881 Agonist Challenge (antagonist assay) or Buffer (agonist assay) was then added (all diluted in complete media containing 10% css). Agonist challenge was at 400 pM for WT assay and 600 pM for F876L assay. Plates containing cells and compounds herein were incubated for a further 20-24 hours at 37° C., 5% CO2 before addition of 40 μL/well of Steady-Glo Luciferase Assay System Reagent (Promega#E2520). After 1 h, plates were read for luminescence on a BMG Pherastar.
((Sample RLU−Ave Low Control RLU[DMSO/Buffer])/(Ave High Control RLU [1 μM R-1881]—Ave Low Control RLU[DMSO/Buffer]))*100.
EC/IC50 calculations were achieved utilizing calculated RLU data and data fitting macros. Data were fit using least-squares methods to the following formula: […]
As used herein: • pIC50 is defined as −Log10(IC50 expressed in [Molar]). • pEC50 is defined as −Log10(EC50 expressed in [Molar]). • MAX % Inh is defined as the maximum % inhibition of R1881 control response observed for a compound over the tested concentration range. • MAX % Stim is defined as the maximum % stimulation (agonist response) observed for a compound over the tested concentration range. • LNCaP-AR-wt ANT refers to the reporter assay using LNCaP cells stably transfected with the Androgen Response Element Firefly Luciferase lentiviral construct and wild-type Androgen Receptor (AR-wt) in Antagonist mode. • LNCaP-AR-wt AG refers to the reporter assay using LNCaP cells stably transfected with the Androgen Response Element Firefly Luciferase lentiviral construct and wild-type Androgen Receptor (AR-wt) in Agonist mode. • LNCaP-AR-F876L ANT refers to the reporter assay using LNCaP cells stably transfected with the Androgen Response Element Firefly Luciferase lentiviral construct and F876L mutant Androgen Receptor (AR-F876L) in Antagonist mode. • LNCaP-AR-F876L AG refers to the reporter assay using LNCaP cells stably transfected with the Androgen Response Element Firefly Luciferase lentiviral construct and F876L mutant Androgen Receptor (AR-F876L) in Agonist mode.
On the technique in general: Reporter assays use an easily measured gene product as a stand-in for the process of interest.

Setting [1] is: agonist mode (buffer, no R-1881), -Log10(EC50 in Molar), read-out: LNCaP-AR-wt AG pEC50 (converted).

The structures appear in SMILES notation. Counter-ions that a name gives are not always drawn. Like-named read-outs stand apart in the source and are kept apart here. Some results are limits rather than exact numbers.

Take `N#Cc1ccc(N2C(=O)C3(CCC3)N(c3ccc(OC4CCNCC4)nc3)C2=S)cc1Cl` [Compound 23, 2-Chloro-4-(8-oxo-5-(6-(piperidin-4-yloxy)pyridin-3-yl)-6-thioxo-5,7-diazaspiro[3.4]octan-7-yl)benzonitrile hydrochloride]: the EC50 was greater than 15.1 µM and the Emax turned out to be 0.9%.

As to `CC1(C)C(=O)N(c2ccc(C#N)c(Cl)c2)C(=S)N1c1ccc(OC2CCNCC2)nc1` [Compound 9, 2-Chloro-4-(4,4-dimethyl-5-oxo-3-(6-(piperidin-4-yloxy)pyridin-3-yl)-2-thioxoimidazolidin-1-yl)benzonitrile hydrochloride], the EC50 was greater than 15.1 µM and the Emax is -0.2%.

Turning to `CN1CCC(Oc2ncc(N3C(=S)N(c4ccc(C#N)c(C(F)(F)F)c4)C(=O)C34CCC4)cn2)CC1` [Compound 16, 4-(5-(2-((1-Methylpiperidin-4-yl)oxy)pyrimidin-5-yl)-8-oxo-6-thioxo-5,7-diazaspiro[3.4]octan-7-yl)-2-(trifluoromethyl)benzonitrile], the EC50 is greater than 15.1 µM and the Emax is -0.1%.

As to `CN1CCC(Oc2ccc(N3C(=S)N(c4ccc(C#N)c(Cl)c4)C(=O)C3(C)C)cn2)CC1` [Compound 10, 2-Chloro-4-(4,4-dimethyl-3-(6-((1-methylpiperidin-4-yl)oxy)pyridin-3-yl)-5-oxo-2-thioxoimidazolidin-1-yl)benzonitrile hydrochloride], the EC50 is greater than 15.1 µM and the Emax came out at 0.1%.

With `CN1CCC(Oc2ccc(N3C(=S)N(c4ccc(C#N)c(C(F)(F)F)c4)C(=O)C34CCC4)cc2)CC1` [Compound 12, 4-(5-(4-((1-Methylpiperidin-4-yl)oxy)phenyl)-8-oxo-6-thioxo-5,7-diazaspiro[3.4]octan-7-yl)-2-(trifluoromethyl)benzonitrile], the EC50 is greater than 15.1 µM and the Emax was found to be 0.4%.

As for `CN1CCC(Oc2ccc(N3C(=S)N(c4ccc(C#N)c(Cl)c4)C(=O)C3(C)C)cc2)CC1` [Compound 8, 2-Chloro-4-(4,4-dimethyl-3-(4-((1-methylpiperidin-4-yl)oxy)phenyl)-5-oxo-2-thioxoimidazolidin-1-yl)benzonitrile hydrochloride], the EC50 is greater than 15.1 µM and the Emax turned out to be 0.1%.

Consider `Cc1cc(N2C(=O)C3(CCC3)N(c3ccc(OC4CCN(C)CC4)cc3)C2=S)ccc1C#N` [Compound 17, 2-Methyl-4-(5-(4-((1-methylpiperidin-4-yl)oxy)phenyl)-8-oxo-6-thioxo-5,7-diazaspiro[3.4]octan-7-yl)benzonitrile], for which the Emax was -0.1%. Besides, under setting [1], the EC50 is greater than 15.1 µM.

As to `CN1CCC(Oc2ccc(N3C(=S)N(c4ccc(C#N)c(Cl)c4)C(=O)C34CCC4)cc2)CC1` [Compound 22, 2-Chloro-4-(5-(4-((1-methylpiperidin-4-yl)oxy)phenyl)-8-oxo-6-thioxo-5,7-diazaspiro[3.4]octan-7-yl)benzonitrile], the EC50 is greater than 15.1 µM and the Emax is -0.2%.

On to `CN1CCC(Oc2ccc(N3C(=S)N(c4ccc(C#N)c(C(F)(F)F)c4)C(=O)C3(C)C)cn2)CC1` [Compound 4, 4-(4,4-Dimethyl-3-(6-((1-methylpiperidin-4-yl)oxy)pyridin-3-yl)-5-oxo-2-thioxoimidazolidin-1-yl)-2-(trifluoromethyl)benzonitrile hydrochloride], for which the EC50 is greater than 15.1 µM and the Emax amounted to 0.1%.

Turning to `N#Cc1ccc(N2C(=O)C3(CCC3)N(c3ccc(OC4CCNCC4)cc3)C2=S)cc1Cl` [Compound 21, 2-Chloro-4-(8-oxo-5-(4-(piperidin-4-yloxy)phenyl)-6-thioxo-5,7-diazaspiro[3.4]octan-7-yl)benzonitrile], the EC50 is greater than 15.1 µM and the Emax came to 0.1%.

With `N#Cc1ccc(N2C(=O)C3(CCC3)N(c3cnc(OC4CCNCC4)nc3)C2=S)cc1C(F)(F)F` [Compound 15, 4-(8-Oxo-5-(2-(piperidin-4-yloxy)pyrimidin-5-yl)-6-thioxo-5,7-diazaspiro[3.4]octan-7-yl)-2-(trifluoromethyl)benzonitrile], the EC50 was greater than 15.1 µM and the Emax is -0.2%.

In the case of `COc1cc(N2C(=O)C3(CCC3)N(c3ccc(OC4CCN(C)CC4)nc3)C2=S)ccc1C#N` [Compound 20, 2-Methoxy-4-(5-(6-((1-methylpiperidin-4-yl)oxy)pyridin-3-yl)-8-oxo-6-thioxo-5,7-diazaspiro[3.4]octan-7-yl)benzonitrile], the EC50 is greater than 15.1 µM and the Emax is -0.1%.

Consider `COc1cc(N2C(=O)C3(CCC3)N(c3ccc(OC4CCN(C)CC4)cc3)C2=S)ccc1C#N` [Compound 19, 2-Methoxy-4-(5-(4-((1-methylpiperidin-4-yl)oxy)phenyl)-8-oxo-6-thioxo-5,7-diazaspiro[3.4]octan-7-yl)benzonitrile], for which the EC50 was greater than 15.1 µM and the Emax was -0.1%.

`Cc1cc(N2C(=O)C3(CCC3)N(c3ccc(OC4CCN(C)CC4)nc3)C2=S)ccc1C#N` [Compound 18, 2-Methyl-4-(5-(6-((1-methylpiperidin-4-yl)oxy)pyridin-3-yl)-8-oxo-6-thioxo-5,7-diazaspiro[3.4]octan-7-yl)benzonitrile]: the Emax stood at 0.6%. The EC50 under setting [1] was greater than 15.1 µM.

On to `CN1CCC(Oc2ncc(N3C(=S)N(c4ccc(C#N)c(C(F)(F)F)c4)C(=O)C3(C)C)cn2)CC1` [Compound 6, 4-(4,4-Dimethyl-3-(2-((1-methylpiperidin-4-yl)oxy)pyrimidin-5-yl)-5-oxo-2-thioxoimidazolidin-1-yl)-2-(trifluoromethyl)benzonitrile], for which the EC50 was greater than 15.1 µM and the Emax turned out to be 0.8%.

`CC1(C)C(=O)N(c2ccc(C#N)c(C(F)(F)F)c2)C(=S)N1c1ccc(OC2CCNCC2)nc1` [Compound 3, 4-(4,4-Dimethyl-5-oxo-3-(6-(piperidin-4-yloxy)pyridin-3-yl)-2-thioxoimidazolidin-1-yl)-2-(trifluoromethyl)benzonitrile hydrochloride]: the EC50 was greater than 15.1 µM and the Emax was 0.5%.

Regarding `CN1CCC(Oc2ccc(N3C(=S)N(c4ccc(C#N)c(Cl)c4)C(=O)C34CCC4)cn2)CC1` [Compound 24, 2-Chloro-4-(5-(6-((1-methylpiperidin-4-yl)oxy)pyridin-3-yl)-8-oxo-6-thioxo-5,7-diazaspiro[3.4]octan-7-yl)benzonitrile hydrochloride], the EC50 is greater than 15.1 µM and the Emax was 0.3%.

For the origin of these results see US20190337924A1, “SUBSTITUTED HYDANTOIN AND THIOHYDANTOIN DERIVATIVES AS ANDROGEN RECEPTOR ANTAGONISTS” (Janssen Pharmaceutica NV, priority 2016, published 2019).
